Experimental data taken from publication PMC3291806 (2011).

Biological target: gamma-aminobutyric acid type A (GABAA) receptor α1(L264T)β2γ2L (Homo sapiens, UniProt P14867+P47870, P14867:L291T)
Assay: cell-based

Sequence of gamma-aminobutyric acid type A (GABAA) receptor α1(L264T)β2γ2L (P14867 28-456 L291T): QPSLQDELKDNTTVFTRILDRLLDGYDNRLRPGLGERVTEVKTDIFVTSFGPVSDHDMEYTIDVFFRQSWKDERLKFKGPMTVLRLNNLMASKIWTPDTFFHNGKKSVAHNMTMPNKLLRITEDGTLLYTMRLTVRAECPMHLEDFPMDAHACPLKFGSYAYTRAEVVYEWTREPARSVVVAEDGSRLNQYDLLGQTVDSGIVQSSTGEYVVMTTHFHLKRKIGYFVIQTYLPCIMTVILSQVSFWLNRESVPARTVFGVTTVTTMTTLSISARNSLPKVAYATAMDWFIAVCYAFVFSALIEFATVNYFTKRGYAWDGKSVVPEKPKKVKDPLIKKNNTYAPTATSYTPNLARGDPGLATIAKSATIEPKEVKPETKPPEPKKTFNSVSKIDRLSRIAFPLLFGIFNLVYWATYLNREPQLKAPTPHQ
Sequence of gamma-aminobutyric acid type A (GABAA) receptor α1(L264T)β2γ2L (P47870 26-512): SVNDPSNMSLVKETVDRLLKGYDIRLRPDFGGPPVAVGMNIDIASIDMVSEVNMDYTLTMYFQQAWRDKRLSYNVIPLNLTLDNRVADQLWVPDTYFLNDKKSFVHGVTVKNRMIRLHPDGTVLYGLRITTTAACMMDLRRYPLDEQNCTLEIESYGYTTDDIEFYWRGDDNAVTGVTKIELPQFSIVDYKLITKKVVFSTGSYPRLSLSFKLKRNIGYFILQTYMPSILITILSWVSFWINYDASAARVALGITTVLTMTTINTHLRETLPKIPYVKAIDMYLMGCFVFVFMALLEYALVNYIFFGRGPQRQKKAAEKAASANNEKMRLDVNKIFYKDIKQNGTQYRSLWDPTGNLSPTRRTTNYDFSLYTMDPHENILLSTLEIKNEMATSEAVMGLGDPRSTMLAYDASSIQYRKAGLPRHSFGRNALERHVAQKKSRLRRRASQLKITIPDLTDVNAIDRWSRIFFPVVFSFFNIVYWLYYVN
Sequence of gamma-aminobutyric acid type A (GABAA) receptor α1(L264T)β2γ2L (P18507 40-475 partner): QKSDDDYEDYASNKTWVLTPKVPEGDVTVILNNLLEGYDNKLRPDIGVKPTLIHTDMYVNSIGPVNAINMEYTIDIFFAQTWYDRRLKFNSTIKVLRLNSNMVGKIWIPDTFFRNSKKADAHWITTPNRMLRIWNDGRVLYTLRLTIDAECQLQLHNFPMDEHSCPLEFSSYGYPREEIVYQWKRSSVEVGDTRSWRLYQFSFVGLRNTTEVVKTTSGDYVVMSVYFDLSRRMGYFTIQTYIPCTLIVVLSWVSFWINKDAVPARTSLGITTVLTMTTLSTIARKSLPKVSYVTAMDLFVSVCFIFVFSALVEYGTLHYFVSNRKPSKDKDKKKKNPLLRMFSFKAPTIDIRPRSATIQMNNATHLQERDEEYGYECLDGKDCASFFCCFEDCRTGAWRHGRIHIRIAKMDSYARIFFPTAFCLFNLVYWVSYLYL

| Structure (SMILES) | EC50 [mM] |
| --- | --- |
| COC(=O)CCOC(=O)c1cncn1[C@H](C)c1ccccc1 [MOC-etomidate, methoxycarbonyl etomidate] | 0.01 ± 0.0025 |
| C[C@H](c1ccccc1)n1cncc1C(=O)OCCC(=O)O [MOC-ECA] | 3.5 ± 0.63 |
